The source of these data is BindingDB's records for doi:10.1016/j.bmc.2007.07.016 (Waseda University, 2007).

Each structure is given as a SMILES string.

This test has as its target T1, Ubiquitin carboxyl-terminal hydrolase isozyme L3 (Homo sapiens, UniProt P15374).
T1 sequence (P15374 whole entry): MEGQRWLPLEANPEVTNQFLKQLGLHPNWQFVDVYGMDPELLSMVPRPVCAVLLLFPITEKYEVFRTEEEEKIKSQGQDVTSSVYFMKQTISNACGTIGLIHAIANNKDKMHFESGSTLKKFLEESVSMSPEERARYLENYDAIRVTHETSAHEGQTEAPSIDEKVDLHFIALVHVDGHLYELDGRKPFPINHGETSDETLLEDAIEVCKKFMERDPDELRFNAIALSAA
Kind of test: Enzyme Inhibition Assay. Conditions: pH 7.8; 22 °C. How it is done:
Enzyme reactions were carried out on Costar 96-well black assay plates. After the reaction, AMC fluorescence (excitation wavelength: 355 nm, emission wavelength: 460 nm) was subsequently measured 40 times every 3 s with a Wallac 1420 multi-label counter. Initial velocities (from 0 to 30 s) were used for IC50 determination, using GraphPad Prism 4 software.
Take `COc1ccc(C2C(C(=O)c3cccs3)C(=O)C(=O)N2c2nncs2)cc1` (stereo not drawn): the IC50 stood at 154 µM.
`CCS(=O)(=O)Nc1cccc(C2=NN(C(C)=O)C(c3cccs3)C2)c1` (stereo not drawn) [N-{3-[1-acetyl-5-(thiophen-2-yl)-4,5-dihydro-1H-pyrazol-3-yl]phenyl}ethane-1-sulfonamide]: the IC50 was greater than 331 µM.
`COc1ccc(N(CC(=O)NC2CC2)S(=O)(=O)c2ccc(C)cc2)cc1` [N-cyclopropyl-2-[(4-methoxyphenyl)(4-methylbenzene)sulfonamido]acetamide] yielded an IC50 greater than 334 µM.
As for `Cc1ccc(C(=O)C2C(=O)C(=O)N(Cc3cccnc3)C2c2ccc(F)cc2)o1` (stereo not drawn) [5-(4-fluorophenyl)-3-hydroxy-4-[(5-methylfuran-2-yl)carbonyl]-1-(pyridin-3-ylmethyl)-2,5-dihydro-1H-pyrrol-2-one], the figure is 123 µM; as for `Cc1ccc(C(=O)C2C(=O)C(=O)N(Cc3ccccc3)C2c2cccnc2)o1` (stereo not drawn) [1-benzyl-3-hydroxy-4-[(5-methylfuran-2-yl)carbonyl]-5-(pyridin-3-yl)-2,5-dihydro-1H-pyrrol-2-one], 103 µM; as for `COc1cccc(N(CC(=O)NC2CCCC2)S(=O)(=O)c2ccccc2)c1` [2-[benzene(3-methoxyphenyl)sulfonamido]-N-cyclopentylacetamide], greater than 386 µM.
For `Nc1nc(CSc2nnc(-c3ccco3)n2-c2ccccc2)cs1` [4-({[5-(furan-2-yl)-4-phenyl-4H-1,2,4-triazol-3-yl]sulfanyl}methyl)-1,3-thiazol-2-amine], the IC50 was greater than 387 µM.
`COc1ccc(S(=O)(=O)N(CC(=O)NC2CC2)c2ccc(C)cc2)cc1` [N-cyclopropyl-2-[(4-methoxybenzene)(4-methylphenyl)sulfonamido]acetamide] had a concentration for half-maximal inhibition (IC50) greater than 401 µM.

As usually defined, the IC50 is the point on the concentration scale where inhibition reaches its midpoint. A low value points to greater potency.
